This passage reports IC50 results from patent US9611252B2 (LifeSci Pharmaceuticals, Inc., priority 2013, dated 2017).

Each structure is given as a SMILES string.

What is called IC50 is the point on the concentration scale where inhibition reaches its midpoint.

In one assay the target is human Plasma Kallikrein (Homo sapiens (Human), UniProt P03952). Briefly: In vitro enzyme inhibition of human plasma kallikrein (PFR-AMC cleavage). The assay is classed as biochemical.
Sequence of human Plasma Kallikrein (P03952 20-638): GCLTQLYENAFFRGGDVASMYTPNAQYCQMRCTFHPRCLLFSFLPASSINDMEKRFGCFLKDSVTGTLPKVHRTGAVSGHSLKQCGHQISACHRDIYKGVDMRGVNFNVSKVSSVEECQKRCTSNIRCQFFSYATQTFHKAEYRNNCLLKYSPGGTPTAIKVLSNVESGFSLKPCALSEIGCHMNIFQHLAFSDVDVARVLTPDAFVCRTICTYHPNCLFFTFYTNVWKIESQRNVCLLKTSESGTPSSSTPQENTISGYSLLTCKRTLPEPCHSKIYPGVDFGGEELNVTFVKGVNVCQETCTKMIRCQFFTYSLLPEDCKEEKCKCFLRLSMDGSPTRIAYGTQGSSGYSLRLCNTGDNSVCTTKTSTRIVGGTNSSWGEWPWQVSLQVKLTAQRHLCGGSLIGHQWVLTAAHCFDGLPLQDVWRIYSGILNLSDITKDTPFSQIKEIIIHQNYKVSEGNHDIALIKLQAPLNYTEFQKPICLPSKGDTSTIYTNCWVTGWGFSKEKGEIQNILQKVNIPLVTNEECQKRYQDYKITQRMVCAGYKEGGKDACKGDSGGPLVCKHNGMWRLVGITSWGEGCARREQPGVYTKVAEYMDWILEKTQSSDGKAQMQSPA
Settings: not given
Here is the method: The ability of the compounds disclosed herein to inhibit human plasma kallikrein activity was quantified according to the procedures below.
A 10 mM solution of the test compound was made in DMSO. […] A control tube containing only DMSO is included. 16 μL of each compound test solution was combined with 384 μL of assay buffer (50 mM Tris-HCl pH 7.5, 150 mM NaCl, 0.01% Triton X-100) to yield a “4× test compound buffer stock”.
These solutions are hereby referred to as 4×hPK and 2×PFR-AMC, respectively.
50 μL was removed from this mixture and placed into duplicate wells on a Microfluor 1Black U-bottom microtiter plate (Thermo Scientific). This plate was incubated for 5 minutes at 37° C. To each well, 50 μL of pre-warmed 2×PFR-AMC was added to start the enzymatic reaction. Cleavage of PFR-AMC was monitored in a Biotek Synergy H4 reader set at 37° C. Readings are taken every 43 seconds for 1 hour. […] The IC50 is calculated using the Gen5 (Biotek Instruments).
The ability of the compounds in Table 3 to inhibit human plasma kallikrein activity was determined.
Turning to `Cc1cc(N)nc(C)c1CNC(=O)c1ccnc(Cn2ccc3c(Cl)cccc3c2=O)c1` [Example 22, N-(6-Amino-2,4-dimethyl-pyridin-3-ylmethyl)-2-(5-chloro-1-oxo-1H-isoquinolin-2-ylmethyl)-isonicotinamide], the IC50 lay in the range of 0.1 to 1 µM.

The assay is the same for the next values; noted with them: human plasma kallikrein, Pro-Phe-Arg-AMC substrate, 37° C.; read-out: hPK IC50.
For the compound `Cc1cc(N)nc(C)c1CNC(=O)c1ccnc(Cc2cnc3ccc(S(C)(=O)=O)cc3c2)c1` [Example 14, N-((6-amino-2,4-dimethylpyridin-3-yl)methyl)-2-((6-(methylsulfonyl)quinolin-3-yl)methyl)isonicotinamide], the IC50 was 0.1 to 1 µM.

As to `Cc1cc(N)ncc1CNC(=O)c1ccnc(Cn2cc3cc(Cl)ccc3cc2=O)c1` [Example 85, N-((6-amino-4-methylpyridin-3-yl)methyl)-2-((7-chloro-3-oxoisoquinolin-2(3H)-yl)methyl)isonicotinamide], the IC50 lay in the range of 0.1 to 1 µM.

Take `Cc1cc(N)nc(C)c1CNC(=O)c1ccnc(Cn2cc3cc(Cl)ccc3n2)c1` [Example 106, N-((6-amino-2,4-dimethylpyridin-3-yl)methyl)-2-((5-chloro-2H-indazol-2-yl)methyl)isonicotinamide]: the half-maximal inhibitory concentration (IC50) is less than 0.1 µM.

Regarding `Cc1cc(N)nc(C)c1CNC(=O)c1ccnc(Cc2cnc3ccc(F)cc3c2)c1` [Example 119, N-((6-amino-2,4-dimethylpyridin-3-yl)methyl)-2-((6-fluoroquinolin-3-yl)methyl)isonicotinamide], the IC50 is less than 0.1 µM.

Take `Cc1cnc2ccc(Cc3cc(C(=O)NCc4ccc5c(N)noc5c4)ccn3)cc2c1` [Example 47, N-((3-aminobenzo[d]isoxazol-6-yl)methyl)-2-((3-methylquinolin-6-yl)methyl)isonicotinamide]: the IC50 fell in the range of 1 to 10 µM.

Take `Cc1cc(N)nc(C)c1CNC(=O)c1ccnc(Cn2ccc3cc(Cl)ccc3c2=O)c1` [Example 23, N-((6-amino-2,4-dimethylpyridin-3-yl)methyl)-2-((6-chloro-1-oxoisoquinolin-2(1H)-yl)methyl)isonicotinamide]: the IC50 fell in the range of 1 to 10 µM.

On to `Cc1cc(N)[n+]([O-])c(C)c1CNC(=O)c1ccnc(Cc2ccc3ncc(Cl)cc3c2)c1` [Example 98, 6-amino-3-((2-((3-chloroquinolin-6-yl)methyl)isonicotinamido)methyl)-2,4-dimethylpyridine 1-oxide], for which the IC50 was 0.1 to 1 µM.

Turning to `O=C(NCc1cc2c(Cl)c[nH]c2cc1F)c1ccnc(Cn2cc3cc(Cl)ccc3cc2=O)c1` [Example 88, 2-((7-chloro-3-oxoisoquinolin-2(3H)-yl)methyl)-N-((3-chloro-6-fluoro-1H-indol-5-yl)methyl)isonicotinamide], the IC50 fell in the range of 0.1 to 1 µM.

`Cc1cnc2c(C#N)cc(Cc3cc(C(=O)NCc4n[nH]c5ccc(Cl)cc45)ccn3)cc2c1` [Example 75, N-((5-chloro-1H-indazol-3-yl)methyl)-2-((8-cyano-3-methylquinolin-6-yl)methyl)isonicotinamide]: the IC50 is less than 0.1 µM.

Consider `Cc1nc(N)ccc1CNC(=O)c1ccnc(Cc2ccc3ncc(Cl)cc3c2F)c1` [Example 103, N-((6-amino-2-methylpyridin-3-yl)methyl)-2-((3-chloro-5-fluoroquinolin-6-yl)methyl)isonicotinamide], for which the IC50 was less than 0.1 µM.

As for `CNc1ccc(CNC(=O)c2ccnc(Cc3ccc4ncc(Cl)cc4c3)c2)c(C)n1` [Example 42, 2-((3-chloroquinolin-6-yl)methyl)-N-((2-methyl-6-(methylamino)pyridin-3-yl)methyl)isonicotinamide], the IC50 was 0.1 to 1 µM.

With `Cc1cc(N)ncc1CNC(=O)c1ccnc(Cc2ccc3ncc(Cl)cc3c2)c1` [Example 29, N-((6-amino-4-methylpyridin-3-yl)methyl)-2-((3-chloroquinolin-6-yl)methyl)isonicotinamide], the IC50 was less than 0.1 µM.

On to `Cc1nc(N(C)C)ccc1CNC(=O)c1ccnc(Cc2ccc3ncc(Cl)cc3c2)c1` [Example 44, 2-((3-chloroquinolin-6-yl)methyl)-N-((6-(dimethylamino)-2-methylpyridin-3-yl)methyl)isonicotinamide], for which the IC50 is more than 10 µM.

Consider `O=C(NCc1cc2c(Cl)c[nH]c2cc1F)c1ccnc(Cc2cnc3cc(Cl)ccc3c2)c1` [Example 140, N-((3-chloro-6-fluoro-1H-indol-5-yl)methyl)-2-((7-chloroquinolin-3-yl)methyl)isonicotinamide], for which the IC50 is less than 0.1 µM.

For `O=C(NCc1cc2cn[nH]c2cc1F)c1ccnc(Cc2ccc3ncc(Cl)cc3c2)c1` [Example 32, 2-(3-chloro-quinolin-6-ylmethyl)-N-(6-fluoro-1H-indazol-5-ylmethyl)-isonicotinamide], the IC50 lay in the range of 1 to 10 µM.

Regarding `CS(=O)(=O)c1ccc2ncc(Cc3cc(C(=O)NCc4cc5c(Cl)c[nH]c5cc4F)ccn3)cc2c1` [Example 12, N-((3-chloro-6-fluoro-1H-indol-5-yl)methyl)-2-((6-(methylsulfonyl)quinolin-3-yl)methyl)isonicotinamide], the concentration for half-maximal inhibition (IC50) is less than 0.1 µM.

For `Nc1nccc2cc(CNC(=O)c3ccnc(Cc4cnc5cc(F)ccc5c4)c3)ccc12` [Example 124, N-((1-aminoisoquinolin-6-yl)methyl)-2-((7-fluoroquinolin-3-yl)methyl)isonicotinamide], the IC50 was less than 0.1 µM.

As to `Cc1cc(N)nc(C)c1CNC(=O)c1ccnc(Cc2ccc3nc(C(N)=O)ccc3c2)c1` [Example 2, 6-((4-(((6-amino-2,4-dimethylpyridin-3-yl)methyl)carbamoyl)pyridin-2-yl)methyl)quinoline-2-carboxamide], the IC50 was 0.1 to 1 µM.

Turning to `Nc1noc2cc(CNC(=O)c3ccnc(Cc4ccc5ncc(Cl)cc5c4)c3)ccc12` [Example 36, N-((3-aminobenzo[d]isoxazol-6-yl)methyl)-2-((3-chloroquinolin-6-yl)methyl)isonicotinamide], the IC50 fell in the range of 1 to 10 µM.

In the case of `CS(=O)(=O)c1ccc2ncc(Cc3cc(C(=O)NCc4ccc5c(N)nccc5c4)ccn3)cc2c1` [Example 13, N-((1-aminoisoquinolin-6-yl)methyl)-2-((6-(methylsulfonyl)quinolin-3-yl)methyl)isonicotinamide], the IC50 was 0.1 to 1 µM.

Take `COC(=O)c1cc(Cc2cc(C(=O)NCc3ccc(N)nc3C)ccn2)cc2cc(Cl)cnc12` [Example 95, methyl 6-((4-(((6-amino-2-methylpyridin-3-yl)methyl)carbamoyl)pyridin-2-yl)methyl)-3-chloroquinoline-8-carboxylate]: the IC50 is less than 0.1 µM.

As to `CS(=O)(=O)c1ccc2cc(Cc3cc(C(=O)NCc4cc5c(Cl)c[nH]c5cc4F)ccn3)ccc2n1` [Example 135, N-((3-chloro-6-fluoro-1H-indol-5-yl)methyl)-2-((2-(methylsulfonyl)quinolin-6-yl)methyl)isonicotinamide], the IC50 was in the range of 0.1 to 1 µM.
